This passage reports IC50 results from patent US11981658B2, “Substituted aminopyridine compounds as EGFR inhibitors” (YUHAN CORPORATION, priority 2021, dated 2024).

Each structure is given as a SMILES string. Like-named read-outs stand apart in the source and are kept apart here.

Assay [1] has as its target EGFR Del19/T790M/C797S (Homo sapiens, UniProt P00533, C797S/DEL746-750/T790M). As to the kind of experiment: Biochemical EGFR kinase inhibition assay (Lance Ultra TR-FRET), triple mutant del19/T790M/C797S. An outline of the steps:
(§1)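 Kinase activity is measured by TR-FRET phosphopeptide detection. Compounds span 0.003 μM to 10 μM; the 1 h reaction at room temperature is quenched with EDTA, then labelled antibody (2 nM) is incubated 60 min before reading.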

Assay [2] has as its target EGFR L858R/T790M/C797S (Homo sapiens, UniProt P00533, C797S/L858R/T790M). As to the kind of experiment: Biochemical EGFR kinase inhibition assay (Lance Ultra TR-FRET), triple mutant L858R/T790M/C797S. Summed up: as §1
(In TR-FRET formats the signal depends on donor and acceptor labels being close together.)

Assay [3] deals with EGFR Del19/C797S (Homo sapiens, UniProt P00533, C797S/DEL746-750). The assay can be described thus: Biochemical EGFR kinase inhibition assay (Lance Ultra TR-FRET), double mutant del19/C797S. Summed up:
as §1

Assay [4] has as its target EGFR L858R/C797S (Homo sapiens, UniProt P00533, C797S/L858R). As to the kind of experiment: Biochemical EGFR kinase inhibition assay (Lance Ultra TR-FRET), double mutant L858R/C797S. An outline of the steps: as §1
Assay [5] deals with EGFR wildtype (WT) (Homo sapiens, UniProt P00533). As to the kind of experiment: Biochemical EGFR kinase inhibition assay (Lance Ultra TR-FRET), wildtype. Summed up: as §1
[6] abbreviates: IC50 Del19/T790M/C797S (nM), 100 μM ATP.
Setting [7] is: IC50 L858R/T790M/C797S (nM), 100 μM ATP.
[8] abbreviates: IC50 Del19/C797S (nM), 100 μM ATP.
Setting [9] is: IC50 L858R/C797S (nM), 100 μM ATP.
The mark [10] stands for this setting: Km ATP, read-out: IC50 Del19/T790M/C797S (nM) Km ATP.
The mark [11] stands for this setting: Km ATP, read-out: IC50 L858R/T790M/C797S (nM) Km ATP.
[12] abbreviates: Km ATP, read-out: IC50 Del19/C797S (nM) Km ATP.
Where [13] appears, read: Km ATP, read-out: IC50 L858R/C797S (nM) Km ATP.
Where [14] appears, read: Km ATP, read-out: IC50 WT (nM) Km ATP.
Setting [15] is: Km ATP, read-out: IC50 Del19/T790M/C797S (nM), Km ATP.
The mark [16] stands for this setting: Km ATP, read-out: IC50 L858R/T790M/C797S (nM), Km ATP.
Where [17] appears, read: Km ATP, read-out: IC50 Del19/C797S (nM), Km ATP.
Where [18] appears, read: Km ATP, read-out: IC50 L858R/C797S (nM), Km ATP.
Setting [19] is: Km ATP, read-out: IC50 WT (nM), Km ATP.
[20] abbreviates: ATP at Km, read-out: IC50 Del19/T790M/C797S (nM), Km ATP.
[21] abbreviates: ATP at Km, read-out: IC50 L858R/T790M/C797S (nM), Km ATP.
Where [22] appears, read: ATP at Km, read-out: IC50 Del19/C797S (nM), Km ATP.
[23] abbreviates: ATP at Km, read-out: IC50 L858R/C797S (nM), Km ATP.
Setting [24] is: ATP at Km, read-out: IC50 WT (nM), Km ATP.

Sequence of EGFR Del19/C797S (P00533 with tags, fused parts or gaps DEL746-750/C797S): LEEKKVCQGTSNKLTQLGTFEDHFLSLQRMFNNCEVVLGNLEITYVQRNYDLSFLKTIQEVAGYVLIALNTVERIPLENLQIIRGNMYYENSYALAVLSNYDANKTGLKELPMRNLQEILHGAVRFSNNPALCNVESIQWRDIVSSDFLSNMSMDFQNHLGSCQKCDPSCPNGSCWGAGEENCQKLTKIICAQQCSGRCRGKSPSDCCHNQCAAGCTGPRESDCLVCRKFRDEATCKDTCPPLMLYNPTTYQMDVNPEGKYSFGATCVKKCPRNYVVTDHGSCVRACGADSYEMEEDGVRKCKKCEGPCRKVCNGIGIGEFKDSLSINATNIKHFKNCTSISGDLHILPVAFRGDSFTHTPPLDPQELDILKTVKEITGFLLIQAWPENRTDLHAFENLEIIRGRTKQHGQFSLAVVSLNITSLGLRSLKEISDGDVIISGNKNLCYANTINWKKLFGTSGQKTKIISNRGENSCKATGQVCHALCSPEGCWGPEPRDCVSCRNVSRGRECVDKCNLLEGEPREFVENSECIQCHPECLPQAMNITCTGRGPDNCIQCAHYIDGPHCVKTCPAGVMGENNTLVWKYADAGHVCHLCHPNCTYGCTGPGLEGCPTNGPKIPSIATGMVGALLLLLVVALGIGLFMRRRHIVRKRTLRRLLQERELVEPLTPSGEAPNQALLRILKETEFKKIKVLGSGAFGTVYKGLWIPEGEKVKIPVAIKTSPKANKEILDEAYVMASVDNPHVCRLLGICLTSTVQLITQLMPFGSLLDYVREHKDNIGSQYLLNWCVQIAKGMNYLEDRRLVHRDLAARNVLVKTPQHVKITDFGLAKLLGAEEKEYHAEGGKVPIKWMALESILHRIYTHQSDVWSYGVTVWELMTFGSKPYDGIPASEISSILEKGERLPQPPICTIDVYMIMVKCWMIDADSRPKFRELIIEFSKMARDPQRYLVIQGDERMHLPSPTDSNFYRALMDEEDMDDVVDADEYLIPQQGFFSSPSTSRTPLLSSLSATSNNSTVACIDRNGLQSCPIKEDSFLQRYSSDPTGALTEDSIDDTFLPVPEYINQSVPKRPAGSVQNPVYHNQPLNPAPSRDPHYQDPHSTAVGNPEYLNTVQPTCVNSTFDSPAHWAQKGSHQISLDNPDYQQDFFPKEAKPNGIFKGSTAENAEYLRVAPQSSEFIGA
Sequence of EGFR L858R/C797S (P00533 25-1210 C797S/L858R): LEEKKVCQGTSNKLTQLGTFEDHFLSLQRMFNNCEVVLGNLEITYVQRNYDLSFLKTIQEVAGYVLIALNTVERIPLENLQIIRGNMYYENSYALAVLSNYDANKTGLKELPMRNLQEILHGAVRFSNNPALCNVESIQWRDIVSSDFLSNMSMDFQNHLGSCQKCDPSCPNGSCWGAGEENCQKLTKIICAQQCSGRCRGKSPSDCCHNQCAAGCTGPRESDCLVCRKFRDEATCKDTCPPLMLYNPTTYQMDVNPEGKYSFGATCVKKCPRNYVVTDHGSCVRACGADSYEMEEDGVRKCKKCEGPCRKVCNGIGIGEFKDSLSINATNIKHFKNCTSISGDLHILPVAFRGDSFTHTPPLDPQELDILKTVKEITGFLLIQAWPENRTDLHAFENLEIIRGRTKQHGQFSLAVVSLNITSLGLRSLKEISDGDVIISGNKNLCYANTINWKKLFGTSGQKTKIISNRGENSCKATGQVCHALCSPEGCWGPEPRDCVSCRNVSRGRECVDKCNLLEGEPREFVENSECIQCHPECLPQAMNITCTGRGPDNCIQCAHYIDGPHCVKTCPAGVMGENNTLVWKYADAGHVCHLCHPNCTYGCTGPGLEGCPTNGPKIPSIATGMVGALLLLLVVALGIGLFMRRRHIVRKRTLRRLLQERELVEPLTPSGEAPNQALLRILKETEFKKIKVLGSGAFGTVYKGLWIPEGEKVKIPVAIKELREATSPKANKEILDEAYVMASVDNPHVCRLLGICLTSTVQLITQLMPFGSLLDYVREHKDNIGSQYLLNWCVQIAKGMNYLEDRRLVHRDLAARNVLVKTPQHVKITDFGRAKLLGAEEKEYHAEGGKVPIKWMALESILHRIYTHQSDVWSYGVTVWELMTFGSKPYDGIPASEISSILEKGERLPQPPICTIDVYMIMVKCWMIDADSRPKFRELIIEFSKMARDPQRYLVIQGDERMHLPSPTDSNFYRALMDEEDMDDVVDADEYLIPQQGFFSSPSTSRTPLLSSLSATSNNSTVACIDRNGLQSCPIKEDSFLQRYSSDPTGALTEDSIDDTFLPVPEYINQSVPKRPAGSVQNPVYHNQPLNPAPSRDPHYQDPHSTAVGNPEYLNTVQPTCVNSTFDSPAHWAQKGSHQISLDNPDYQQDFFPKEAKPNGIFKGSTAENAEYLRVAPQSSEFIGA
Sequence of EGFR L858R/T790M/C797S (P00533 25-1210 T790M/C797S/L858R): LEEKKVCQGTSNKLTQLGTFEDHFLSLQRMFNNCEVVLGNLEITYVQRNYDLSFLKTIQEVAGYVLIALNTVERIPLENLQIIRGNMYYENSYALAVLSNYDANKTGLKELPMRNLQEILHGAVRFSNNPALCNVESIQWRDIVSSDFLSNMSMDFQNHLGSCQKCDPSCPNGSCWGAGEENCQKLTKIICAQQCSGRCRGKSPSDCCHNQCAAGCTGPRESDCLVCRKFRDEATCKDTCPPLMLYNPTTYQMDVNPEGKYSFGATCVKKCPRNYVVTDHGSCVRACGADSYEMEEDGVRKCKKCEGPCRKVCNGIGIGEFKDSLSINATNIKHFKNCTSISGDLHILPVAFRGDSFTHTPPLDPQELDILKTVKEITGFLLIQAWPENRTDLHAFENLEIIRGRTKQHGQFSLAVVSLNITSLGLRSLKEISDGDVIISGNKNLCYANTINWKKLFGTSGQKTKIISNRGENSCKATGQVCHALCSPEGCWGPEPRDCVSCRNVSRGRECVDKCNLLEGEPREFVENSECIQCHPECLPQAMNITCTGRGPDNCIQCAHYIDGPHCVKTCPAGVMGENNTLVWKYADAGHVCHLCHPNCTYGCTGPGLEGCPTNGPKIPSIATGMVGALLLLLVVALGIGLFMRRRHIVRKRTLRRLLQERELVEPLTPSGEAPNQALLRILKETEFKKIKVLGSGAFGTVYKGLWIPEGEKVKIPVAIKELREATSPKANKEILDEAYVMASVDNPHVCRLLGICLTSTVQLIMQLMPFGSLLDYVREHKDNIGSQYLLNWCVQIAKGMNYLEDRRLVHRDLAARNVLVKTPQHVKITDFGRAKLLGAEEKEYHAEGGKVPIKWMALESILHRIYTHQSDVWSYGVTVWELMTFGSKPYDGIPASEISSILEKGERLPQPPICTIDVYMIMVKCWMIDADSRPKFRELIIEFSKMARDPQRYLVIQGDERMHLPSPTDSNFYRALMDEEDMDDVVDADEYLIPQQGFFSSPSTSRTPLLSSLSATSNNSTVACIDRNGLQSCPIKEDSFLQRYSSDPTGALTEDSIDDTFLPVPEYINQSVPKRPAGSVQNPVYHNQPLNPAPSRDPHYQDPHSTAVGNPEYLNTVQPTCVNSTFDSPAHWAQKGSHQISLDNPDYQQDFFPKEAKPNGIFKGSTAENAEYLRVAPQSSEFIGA
Sequence of EGFR Del19/T790M/C797S (P00533 with tags, fused parts or gaps DEL746-750/T790M/C797S): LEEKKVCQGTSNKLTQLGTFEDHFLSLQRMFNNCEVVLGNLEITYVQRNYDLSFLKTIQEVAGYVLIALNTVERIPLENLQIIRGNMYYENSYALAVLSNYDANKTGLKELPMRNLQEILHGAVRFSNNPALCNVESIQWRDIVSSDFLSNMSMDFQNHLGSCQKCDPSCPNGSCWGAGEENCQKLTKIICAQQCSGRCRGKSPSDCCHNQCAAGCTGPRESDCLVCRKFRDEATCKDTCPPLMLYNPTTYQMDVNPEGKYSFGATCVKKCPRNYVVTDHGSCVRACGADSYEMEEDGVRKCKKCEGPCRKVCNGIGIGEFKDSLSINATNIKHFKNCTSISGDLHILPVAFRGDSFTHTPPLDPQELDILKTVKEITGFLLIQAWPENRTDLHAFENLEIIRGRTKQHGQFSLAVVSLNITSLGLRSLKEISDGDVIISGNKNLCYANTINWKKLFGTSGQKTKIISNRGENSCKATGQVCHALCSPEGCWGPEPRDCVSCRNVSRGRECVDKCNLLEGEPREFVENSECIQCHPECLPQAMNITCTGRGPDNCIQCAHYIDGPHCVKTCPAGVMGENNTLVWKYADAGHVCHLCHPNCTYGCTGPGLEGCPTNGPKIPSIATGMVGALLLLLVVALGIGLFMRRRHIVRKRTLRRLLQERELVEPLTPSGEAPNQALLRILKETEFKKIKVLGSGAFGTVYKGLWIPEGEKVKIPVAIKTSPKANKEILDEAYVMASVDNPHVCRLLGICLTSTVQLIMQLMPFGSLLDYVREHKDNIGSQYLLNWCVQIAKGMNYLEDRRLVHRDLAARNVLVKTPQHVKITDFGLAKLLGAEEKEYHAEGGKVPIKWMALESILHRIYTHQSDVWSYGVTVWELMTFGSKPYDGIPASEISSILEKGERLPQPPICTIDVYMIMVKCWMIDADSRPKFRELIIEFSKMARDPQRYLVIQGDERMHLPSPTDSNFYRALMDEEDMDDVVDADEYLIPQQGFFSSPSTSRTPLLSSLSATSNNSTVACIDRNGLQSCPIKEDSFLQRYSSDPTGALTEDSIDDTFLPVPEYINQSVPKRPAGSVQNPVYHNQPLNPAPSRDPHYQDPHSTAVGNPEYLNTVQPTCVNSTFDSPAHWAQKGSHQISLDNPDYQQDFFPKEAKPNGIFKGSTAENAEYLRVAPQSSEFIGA

Consider `CC(C)(O)[C@H]1CC[C@@H](Nc2cc(Nc3ccnc(-c4cnn(S(=O)(=O)C5CC5)c4)n3)ncc2C#Cc2cnn(CC(F)(F)F)c2)CC1` [Example 346, 2-((1s,4s)-4-((2-((2-(1-(Cyclopropylsulfonyl)-1H-pyrazol-4-yl)pyrimidin-4-yl)amino)-5-((1-(2,2,2-trifluoroethyl)-1H-pyrazol-4-yl)ethynyl)pyridin-4-yl)amino)cyclohexyl)propan-2-ol], for which the IC50 in assay [1] (setting [6]) is 17.4 nM; in assay [2] (setting [7]) it was 5.8 nM; in assay [3] (setting [8]) it was 45.3 nM; in assay [4] (setting [9]) it was 249 nM; in assay [5] (IC50 WT (nM), 100 μM ATP) it was more than 10000 nM.

For `Cn1cc(C#Cc2cnc(Nc3ccnc(-c4cnn(S(=O)(=O)C5CC5)c4)n3)cc2N2CCC(NCC(F)F)CC2)cn1` [Example 126, 2-(1-(Cyclopropylsulfonyl)-1H-pyrazol-4-yl)-N-(4-(4-((2,2-difluoroethyl)amino)piperidin-1-yl)-5-((1-methyl-1H-pyrazol-4-yl)ethynyl)pyridin-2-yl)pyrimidin-4-amine], the IC50 in assay [1] (setting [6]) stood at 1.7 nM; in assay [1] (setting [10]), 0.6 nM; in assay [2] (setting [7]), 0.9 nM; in assay [2] (setting [11]), 0.3 nM; in assay [3] (setting [8]) it was 1.6 nM; in assay [3] (setting [12]), 1.4 nM. Also, the IC50 is 11.5 nM in assay [4] (setting [9]); 1.8 nM in assay [4] (setting [13]); more than 10000 nM in assay [5] (IC50 WT (nM), 100 μM ATP); 35 nM in assay [5] (setting [14]).

With `CC1(CO)CCN(c2cc(Nc3ccnc(-c4cnn(S(=O)(=O)C5CC5)c4)n3)ncc2C#CC2(O)CCCOC2)CC1` (stereo not shown) [Example 357, 3-((6-((2-(1-(Cyclopropylsulfonyl)-1H-pyrazol-4-yl)pyrimidin-4-yl)amino)-4-(4-(hydroxymethyl)-4-methylpiperidin-1-yl)pyridin-3-yl)ethynyl)tetrahydro-2H-pyran-3-ol], the IC50 was determined as 0.3 nM in assay [1] (setting [6]); 0.2 nM in assay [1] (setting [15]); 0.4 nM in assay [2] (setting [7]); 0.1 nM in assay [2] (setting [16]); 1.5 nM in assay [3] (setting [8]); 1.4 nM in assay [3] (setting [17]). The IC50 was 14 nM in assay [4] (setting [9]); 1.5 nM in assay [4] (setting [18]); 4710 nM in assay [5] (IC50 WT (nM), 100 μM ATP); 9.2 nM in assay [5] (setting [19]).

For `CC1(CO)CCN(c2cc(Nc3ccnc(-c4cnn(S(=O)(=O)C5CC5)c4)n3)ncc2C#Cc2ccc(C(=O)N3CCOCC3)cc2)CC1` [Example 263, (4-((6-((2-(1-(Cyclopropylsulfonyl)-1H-pyrazol-4-yl)pyrimidin-4-yl)amino)-4-(4-(hydroxymethyl)-4-methylpiperidin-1-yl)pyridin-3-yl)ethynyl)phenyl)(morpholino)methanone], the IC50 in assay [1] (setting [20]) was determined as 1.1 nM; in assay [1] (setting [6]) it was 1.5 nM; in assay [2] (setting [21]), 0.4 nM; in assay [2] (setting [7]) it was 1.2 nM; in assay [3] (setting [22]), 0.8 nM; in assay [3] (setting [8]) it was 1.3 nM. Further, the IC50 in assay [4] (setting [23]) was 0.7 nM; in assay [4] (setting [9]) it was 3.2 nM; in assay [5] (setting [24]), 3 nM; in assay [5] (IC50 WT (nM), 100 μM ATP), more than 10000 nM.

On to `CN1CCn2ncc(C#Cc3cnc(Nc4ccnc(-c5cnn(S(=O)(=O)C6CC6)c5)n4)cc3N3CCC(C)(CO)CC3)c2C1` [Example 150, (1-(2-((2-(1-(Cyclopropylsulfonyl)-1H-pyrazol-4-yl)pyrimidin-4-yl)amino)-5-((5-methyl-4,5,6,7-tetrahydropyrazolo[1,5-a]pyrazin-3-yl)ethynyl)pyridin-4-yl)-4-methylpiperidin-4-yl)methanol], for which the IC50 in assay [1] (setting [6]) stood at 0.5 nM; in assay [1] (setting [10]), 0.5 nM; in assay [2] (setting [7]), 0.5 nM; in assay [2] (setting [11]), 0.2 nM; in assay [3] (setting [8]) it was 0.7 nM; in assay [3] (setting [12]), 0.8 nM. Also, the IC50 came to 8.9 nM in assay [4] (setting [9]); 2.2 nM in assay [4] (setting [13]); 3760 nM in assay [5] (IC50 WT (nM), 100 μM ATP); 4.9 nM in assay [5] (setting [14]).

As to `CC1(O)CCN(c2cc(Nc3ccnc(-c4cnn(S(=O)(=O)C5CC5)c4)n3)ncc2C#Cc2cccnc2)CC1` [Example 280, 1-(2-((2-(1-(Cyclopropylsulfonyl)-1H-pyrazol-4-yl)pyrimidin-4-yl)amino)-5-(pyridin-3-ylethynyl)pyridin-4-yl)-4-methylpiperidin-4-ol], the IC50 in assay [1] (setting [20]) was 0.5 nM; in assay [1] (setting [6]), 0.3 nM; in assay [2] (setting [21]), 0.4 nM; in assay [2] (setting [7]), 0.6 nM; in assay [3] (setting [22]) it was 0.3 nM; in assay [3] (setting [8]) it was 0.5 nM. Also, the IC50 was 0.6 nM in assay [4] (setting [23]); 6.3 nM in assay [4] (setting [9]); 3.5 nM in assay [5] (setting [24]); more than 10000 nM in assay [5] (IC50 WT (nM), 100 μM ATP).

On to `O=S(=O)(C1CC1)n1cc(-c2nccc(Nc3cc(N4CCC[C@@H](O)C4)c(C#Cc4cnn(CCF)c4)cn3)n2)cn1` [Example 440, (R)-1-(2-((2-(1-(Cyclopropylsulfonyl)-1H-pyrazol-4-yl)pyrimidin-4-yl)amino)-5-((1-(2-fluoroethyl)-1H-pyrazol-4-yl)ethynyl)pyridin-4-yl)piperidin-3-ol], for which the IC50 in assay [1] (setting [6]) is 0.5 nM; in assay [1] (setting [15]), 0.5 nM; in assay [2] (setting [7]), 1.3 nM; in assay [2] (setting [16]) it was 0.5 nM; in assay [3] (setting [8]), 9.7 nM; in assay [3] (setting [17]) it was 7.6 nM. Further, the IC50 is 61.5 nM in assay [4] (setting [9]); 10.3 nM in assay [4] (setting [18]); more than 10000 nM in assay [5] (IC50 WT (nM), 100 μM ATP); 48.4 nM in assay [5] (setting [19]).

For the molecule `CN1CCC2(CC1)CCN(c1cc(Nc3ccnc(-c4cnn(S(=O)(=O)C5CC5)c4)n3)ncc1C#Cc1cnn(CC(F)F)c1)CC2` [Example 322, 2-(1-(Cyclopropylsulfonyl)-1H-pyrazol-4-yl)-N-(5-((1-(2,2-difluoroethyl)-1H-pyrazol-4-yl)ethynyl)-4-(9-methyl-3,9-diazaspiro[5.5]undecan-3-yl)pyridin-2-yl)pyrimidin-4-amine], the IC50 was 0.5 nM in assay [1] (setting [6]); 0.4 nM in assay [2] (setting [7]); 6 nM in assay [3] (setting [8]); 18 nM in assay [4] (setting [9]); 4540 nM in assay [5] (IC50 WT (nM), 100 μM ATP).

For the molecule `CN(C)CCNC1CCN(c2cc(Nc3ccnc(-c4cnn(S(=O)(=O)C5CC5)c4)n3)ncc2C#Cc2cnn(C3CCOCC3)c2)CC1` [Example 138, N^1-(1-(2-((2-(1-(Cyclopropylsulfonyl)-1H-pyrazol-4-yl)pyrimidin-4-yl)amino)-5-((1-(tetrahydro-2H-pyran-4-yl)-1H-pyrazol-4-yl)ethynyl)pyridin-4-yl)piperidin-4-yl)-N^2,N^2-dimethylethane-1,2-diamine], the IC50 in assay [1] (setting [6]) amounted to 0.3 nM; in assay [1] (setting [10]), 0.3 nM; in assay [2] (setting [7]), 0.4 nM; in assay [2] (setting [11]) it was 0.1 nM; in assay [3] (setting [8]), 1.3 nM; in assay [3] (setting [12]), 1 nM. Besides, the IC50 turned out to be 8.7 nM in assay [4] (setting [9]); 0.9 nM in assay [4] (setting [13]); 2940 nM in assay [5] (IC50 WT (nM), 100 μM ATP); 7.8 nM in assay [5] (setting [14]).

As for `CC1(CO)CCN(c2cc(Nc3ccnc(-c4cnn(S(=O)(=O)C5CC5)c4)n3)ncc2C#Cc2ccncc2)CC1` [Example 258, (1-(2-((2-(1-(Cyclopropylsulfonyl)-1H-pyrazol-4-yl)pyrimidin-4-yl)amino)-5-(pyridin-4-ylethynyl)pyridin-4-yl)-4-methylpiperidin-4-yl)methanol], the IC50 in assay [1] (setting [20]) is 0.3 nM; in assay [1] (setting [6]) it was 0.5 nM; in assay [2] (setting [21]), 0.1 nM; in assay [2] (setting [7]), 0.5 nM; in assay [3] (setting [22]), 0.7 nM; in assay [3] (setting [8]), 0.5 nM. In addition, the IC50 in assay [4] (setting [23]) was 1.8 nM; in assay [4] (setting [9]), 7.7 nM; in assay [5] (setting [24]), 5 nM; in assay [5] (IC50 WT (nM), 100 μM ATP) it was 5310 nM.

Turning to `O=S(=O)(C1CC1)n1cc(-c2nccc(Nc3cc(N[C@H]4CC[C@@H](O)CC4)c(C#CC4(O)CCCCC4)cn3)n2)cn1` [Example 174, 1-((6-((2-(1-(Cyclopropylsulfonyl)-1H-pyrazol-4-yl)pyrimidin-4-yl)amino)-4-(((1 s, 4s)-4-hydroxycyclohexyl)amino)pyridin-3-yl)ethynyl)cyclohexan-1-ol], the IC50 in assay [1] (setting [20]) was determined as 0.5 nM; in assay [1] (setting [6]), 0.9 nM; in assay [2] (setting [21]), 1.2 nM; in assay [2] (setting [7]) it was 2.1 nM; in assay [3] (setting [22]) it was 11 nM; in assay [3] (setting [8]), 10.8 nM. In addition, the IC50 in assay [4] (setting [23]) was 30.5 nM; in assay [4] (setting [9]), 283 nM; in assay [5] (setting [24]) it was 150 nM; in assay [5] (IC50 WT (nM), 100 μM ATP), more than 10000 nM.
